What was measured:
Format in all cases: in vivo, human
[1] = tested on: relapsed/refractory AML; assay: Study AMLCG 1999, AraC based chemotherapy by CXCR4/CXCR2 expression ratio; settings: relapsed/refractory AML subjects
From the text: FIG. 11B. Progression free survival (PFS) probabilities over time (days) for relapsed/refractory AML subjects in study AMLCG 1999 receiving AraC based chemotherapy with relative CXCR4/CXCR2 expression ratios.

[2] = tested on: elderly patients with newly diagnosed, de novo, or secondary AML; assay: Ph3 study AML301, tipifarnib versus BSC
Procedure: (§1) Clinical studies with tipifarnib were performed in newly diagnosed elderly patients with poor risk AML (CTEP-20, Phase 2) and relapsed and refractory AML (INT-17, Phase 2). Patient selection in these studies was not based on genetic markers. Anecdotal evidence of tipifarnib single agent activity was reported. […] Median OS in the overall study was 107 days for the Tipifarnib group and 109 days for the BSC group in AML301.
AML patients with low percentage of circulating blood blasts (<1 and <10%) and high percentage of bone marrow blasts (>40%) receive clinical benefit from tipifarnib treatment in terms of progression free survival (PFS, CTEP20) or survival (AML301). […] AML301 patients N=82 (18% of study size), HR=0.58, 109 (BSC) vs 201 (tipifarnib) days, P=0.019.
FIGS. 3A-H show results from a clinical tipifarnib trial for subsets of elderly or frail AML patients (AML-301) with varying degrees of neutropenia. […] FIGS. 3B-3F show survival probabilities in AML patient subsets with WBCs>2.1×10^9 cells/L and ANC<1.2×10^9 cells/L (FIG. 3B), ANC<1.0 (FIG. 3C), ANC<0.8 (FIG. 3D), ANC<0.6 (FIG. 3E) and ANC<0.4 (FIG. 3F).

[3] = tested on: newly diagnosed elderly patients with poor risk AML; assay: Phase 2 study CTEP-20 of tipifarnib
Procedure: as §1
FIG. 7. (A) PFS probabilities of previously untreated elderly or unfit AML subjects with a high CXCR4/CXCR2 ratio versus the rest of the patients enrolled in study CTEP-20. Outcome and expression data are available for 34 study subjects. Median survival of subjects with a bone marrow CXCR4/CXCR2 expression ratio in the upper quartile was 406 days versus 67 days in quartiles 1st-3rd, HR=0.44, p=0.09. Median overall PFS was 84 days. (B) Survival probabilities of previously untreated elderly or unfit AML subjects with a high CXCR4/CXCR2 ratio versus the rest of the patients in study CTEP-20. Median survival of subjects with a bone marrow CXCR4/CXCR2 expression ratio in the upper quartile was 728 days versus 179 days in quartiles 1st-3rd, HR=0.26, p=0.07. Median overall survival was 233 days.

[4] = tested on: relapsed and refractory AML; assay: Phase 2 study INT-17 of tipifarnib
Procedure: as §1
FIGS. 6A and 6B show graphs illustrating results from a tipifarnib trial with relapsed or refractory AML subjects (INT-17 R/R AML). […] The bone marrow of refractory AML subjects was generally found to express low levels of CXCL12. A small subset of subjects (˜15%) presented high levels of CXCR4, bone marrow homing of tumor cells and sensitivity to tipifarnib. FIG. 6A illustrates relative counts of blood blasts in relapsed or refractory AML patients stratified based on CXCR4 expression levels. […] FIG. 6B illustrates PFS probabilities for relapsed or refractory AML subjects stratified based on CXCR4 expression levels. AML subjects overexpressing CXCR4 (N=8; median PFS=143 days) had better clinical outcomes than AML subjects with relatively lower levels of CXCR4 expression (N=49; median PFS=29 days).
CXCR4/CXCR2 ratio data were available for 57 subjects who experienced an overall survival of 87 days. […]

[5] = tested on: relapsed/refractory PTCL; assay: Tipifarnib in relapsed/refractory PTCL patients with available GEP; settings: of 13 highly advanced relapsed/refractory PTCL patients with available GEP
From the text: (§2) CXCL12 expression alone or as a ratio of the expression to its receptor CXCR4 predicted complete response to tipifarnib treatment (p=0.08, p=0.001) (FIG. 20A). CXCL12 and the CXCL12/CXCR4 ratio also were predictive of 2 partial responses (PR) observed in 13 highly advanced relapsed/refractory PTCL patients with available GEP (p=0.009, p=0.0007) (FIG. 20B). Four objective responses and 1 tumor lysis syndrome were reported in 17 tipifarnib-treated CMML subjects with available pre-treatment BM gene expression data (FIG. 20C). CXCL12 expression (p=0.07) and the CXCL12/CXCR4 ratio (p=0.03) were predictive of those events (FIG. 20C). Only 3 CRs were reported in 58 patients with available BM gene expression data in study INT-17.

[6] = tested on: relapsed/refractory CMML; assay: Tipifarnib-treated CMML subjects (study TIP-004); settings: of 17 CMML subjects with available pre-treatment BM gene expression data
From the text: FIG. 10B. Progression free survival (PFS) probabilities over time (days) for relapsed/refractory CMML subjects in study TIP-004 receiving tipifarnib with relative CXCR4/CXCR2 expression ratios. CMML patients having higher CXCR4/CXCR2 expression ratios responded better to tipifarnib treatment than those having lower CXCR4/CXCR2 expression ratios.
as §2

| SMILES | PFS response of patients with higher versus lower CXCR4/CXCR2 expression ratios [1] | hazard ratio, tipifarnib versus reference therapy ([2]; ANC/WBC<0.3 and marrow blasts >60%, N=110, P=0.08) | hazard ratio, tipifarnib versus BSC ([2]; ANC/WBC<0.4, WBC>2, platelets >20, N=135, P=0.046) | survival probability versus Best Supportive Care ([2]; no marrow homing subset) | HR, tipifarnib versus BSC ([2]; subset with bone marrow blasts >40% and peripheral blood blasts <10%, N=82, P=0.019) | Median survival (PFS panel A) ([3]; CXCR4/CXCR2 expression ratio quartiles 1st-3rd) [days] | best responses of progression of disease (PD), number of patients ([3]; of 34 pts with available BM gene expression data) | HR for survival, upper quartile versus quartiles 1st-3rd of CXCR4/CXCR2 ratio ([3]; p=0.07) | HR for PFS, upper quartile versus quartiles 1st-3rd of CXCR4/CXCR2 ratio ([3]; p=0.09) | CRs, number of patients ([4]; of 58 patients with available BM gene expression data) | HR, 5th quintile of CXCR4/CXCR2 ratio versus rest of the subjects ([4]; p=0.04) | partial responses (PR), number of patients [5] | tumor lysis syndrome, number of subjects [6] |
| --- | --- | --- | --- | --- | --- | --- | --- | --- | --- | --- | --- | --- | --- |
| Nc1ccn([C@@H]2O[C@H](CO)[C@@H](O)[C@@H]2O)c(=O)n1 [AraC] | no differently |  |  |  |  |  |  |  |  |  |  |  |  |
| Cn1cncc1[C@@](N)(c1ccc(Cl)cc1)c1ccc2c(c1)c(-c1cccc(Cl)c1)cc(=O)n2C [tipifarnib] |  | 0.67 | 0.7 | no effect | 0.58 | 67 | 13 | 0.26 | 0.44 | 3 | 0.52 | 2 | 1 |
